From patent publication US20220023317A1, “PREVENTING OR MITIGATING CHEMOTHERAPY INDUCED ALOPECIA USING VITAMIN D” (Berg LLC, priority 2013, published 2022)

Columns and labels:
NCI-ES-0808 = test: Cell growth / viability assay; type: cell-based
Long Evans Rats = test: Alopecia in chloroleukemic Long Evans rats receiving multi-course chemotherapy; type: in vivo, rat; conditions: for extent of alopecia (grade): all rats
Text: Animals were then randomized in four groups.
Treatments were started on day 6 after birth.
Unused preparations were disposed of.

HEKa cells [1] = test: Pretreatment of cells with calcitriol before chemotherapy drugs; type: cell-based, human
Method: Then these pretreated cells were utilized to set up the cell based assay. […] Three commonly used chemotherapy drugs (doxorubicin, cisplatin and erlotinib) were selected to evaluate calcitriol treated cells. […] In these experiments, the commercial drugs were serially diluted, starting at a concentration 4-times higher than the final desired concentration for cell incubation. […] The assay was carried out according to the previously described method in order to provide consistency and allow direct comparison. The result was based upon measurement of the total number of viable cells. […] Thus, a topical application of calcitriol could be applied at the same time as the systemic delivery of the chemotherapy. A staged application is not required.

Sprague Dawley rats = test: Neonatal rat model of CIA, 1,25(OH)2D3 in ethanol; type: in vivo; conditions: 0.2 μg in 150 μL ethanol topical, days 5-10; CTX 35 mg/kg; all 10 animals
Text: Neonatal Rat model and PCA model. Sprague Dawley rats were purchased from Charles River Laboratories (Wilmington, Mass.). C3H/HeJ mouse were purchased from Jackson Laboratories (Bar Harbour, Me.).Rodents were housed and fed according to NIH guidelines. For experiments involving chemotherapy, cyclophosphamide was purchased from Mead Johnson (Evansville, Ind.) and Etoposide was obtained from Bristol-Myers (Evansville, Ind.). 1,25(OH)2D3 powder was a gift from Dr. Uskokovic (Hoffman-La Roche, Nutley, N.J.). For experiments involving C3H/HeJ mice, 1,25(OH)2D3 was purchased from Sigma (St. Louis, Mo.). Topical application of 1,25(OH)2D3. 1,25(OH)2D3 was dissolved in absolute ethanol and applied topically with an applicator. Control animals were similarly treated with vehicle only. […] For CIA experiments, 1,25(OH)2D3 was given daily beginning on day 5 after birth and ending on day 10. […] For CIA and PCA, the experimental group was treated with 0.2 μg of 1,25(OH)2D3 in 150 μL of absolute ethanol applied topically over the head and neck. In both instances, the control group received ethanol vehicle only. Cyclophosphamide (35 mg/kg) was given intraperitoneally for one day only. […] Both chemotherapies were started at 11 days of age. Alopecia was recorded on the tenth day after the first dose of chemotherapy.

HEKa cells [2] = test: Protection of HEKa cells by calcitriol against chemotherapeutic drugs; type: cell-based, human
Method: These include: erlotinib (Tarceva), an EGFR Tyr kinase inhibitor; gefutubib (Iressa), an EGFR Tyr kinase inhibitor; sorafenib, inhibitor of several Tyr kinases (Raf, VEGF-R2, c-kit, PDGR-R); Dasatinib, a BCR/ABL Tyr kinase inhibitor; and staurosporin, a relatively nonspecific kinase inhibitor.
The drug treatment period was usually three days. At the end of the three days, the background OD of the 96-well plate was read at 280 nm, before 20 μL of the “Substrate Cell Titer 96 Aqueous One Solution Reagent” (Promega) was added to each well. The plate was returned to the 37° C. incubator, and its OD at 490 nm was read each hour until an OD of approximately 1.5 was reached. The net OD increase was calculated by subtracting the pre-substrate OD reading.
The impact of the drug on the cells was calculated by comparing the OD at different concentrations in relation to the OD of the control wells (without the drug).

[3] = Quantification of calcitriol in ex vivo porcine skin layers; set-up: species or system minipig
Text: The skin sections were weighed and the weight recorded.

SkBr-3 = test: Cell growth / viability assay; type: cell-based
[4] = Female Minipigs, 10 μg/mL, mean ± SD
[5] = Female Minipigs, 30 μg/mL, mean ± SD
[6] = Male Minipig (1 animal), 100 μg/mL, mean ± SD
[7] = Male Minipigs, 3 μg/mL, mean ± SD
[8] = Male Minipigs, 10 μg/mL, mean ± SD
[9] = Male Minipigs, 30 μg/mL, mean ± SD

For `C=C1/C(=C\C=C2/CCC[C@]3(C)[C@@H]([C@H](C)CCCC(C)(C)O)CC[C@@H]23)C[C@@H](O)C[C@@H]1O` [Calcitriol, (1a.3B.5Z.7E)-9,10-secocholesta-5,7,10(19)-triene-1,3,25-triol], the “effect of calcitriol on cell growth” value (NCI-ES-0808) was “no significant growth promoting or growth inhibiting effects”, the “effect of calcitriol on cytotoxic effect of Doxorubicin” value (NCI-ES-0808) was “did not appear to appreciably alter” and the “extent of alopecia (grade)” value (Long Evans Rats; ADM + paclitaxel + etoposide, first round) was “did not exhibit any signs of alopecia”. The “rats with alopecia grade 0 (number)” value (Long Evans Rats; ADM + paclitaxel + etoposide, second round, topical calcitriol, of 32) was 32, the “extent of alopecia (grade)” value (Long Evans Rats; CTX + ADM + ARA-C, first round) was “did not exhibit any signs of alopecia” and the “rats with alopecia grade 0 (number)” value (Long Evans Rats; CTX + ADM + ARA-C, second round, topical calcitriol, of 31) was 31. The “rats with alopecia grade 0 (number)” value (Long Evans Rats; CTX + ADM + cytarabine (ARA-C), first round, topical calcitriol 2 μg/mL, of 40) was 40, the “extent of alopecia (grade)” value (Long Evans Rats; CTX + ADM, first round) was “did not exhibit any signs of alopecia” and the “rats with alopecia grade 0 (number)” value (Long Evans Rats; CTX + ADM, second round, topical calcitriol, of 20) was 20. For the same molecule, the “rats with alopecia grade 0 (number)” value (Long Evans Rats; CTX + doxorubicin (ADM), first round, topical calcitriol 2 μg/mL, of 40) was 40, the “extent of alopecia (grade)” value (Long Evans Rats; CTX + paclitaxel + etoposide, first round) was “did not exhibit any signs of alopecia” and the “rats with alopecia grade 0 (number)” value (Long Evans Rats; CTX + paclitaxel + etoposide, first round, topical calcitriol 2 μg/mL, of 40) was 40. For the same molecule, the “rats with alopecia grade 0 (number)” value (Long Evans Rats; CTX + paclitaxel + etoposide, second round, topical calcitriol, of 33) was 33, the “extent of alopecia (grade)” value (Long Evans Rats; CTX, first round of chemotherapy) was “did not exhibit any signs of alopecia” and the “rats with alopecia grade 0 (number)” value (Long Evans Rats; CTX, first round of chemotherapy, topical calcitriol 2 μg/mL 0.1 mL daily x6, 0 = no alopecia, of 40) was 40. The “rats with alopecia grade 0 (number)” value (Long Evans Rats; CTX, second round of chemotherapy, topical calcitriol days 40-45, of 10) was 10, the “rats with alopecia grade 0 (number)” value (Long Evans Rats; Doxorubicin (ADM) + paclitaxel + etoposide, first round, topical calcitriol 2 μg/mL, of 40) was 40 and the “protection from CIA” value (Long Evans Rats; calcitriol 2 μg/mL, each of five chemotherapy regimens, first and second cycles) was 100%. For the same molecule, the “protection from CIA” value (Long Evans Rats; cyclophosphamide and doxorubicin group, both cycles) was 100%, the “protection from CIA” value (Long Evans Rats; cyclophosphamide group, both cycles) was 100% and the “protection from CIA” value (Long Evans Rats; cyclophosphamide, doxorubicin and cytarabine group, both cycles) was 100%. For the same molecule, the “protection from CIA” value (Long Evans Rats; cyclophosphamide, paclitaxel and etoposide group, both cycles) was 100%, the “protection from CIA” value (Long Evans Rats; doxorubicin, paclitaxel and etoposide group, both cycles) was 100% and the “HEKa growth after prolonged calcitriol exposure” value (HEKa cells [1]; 0.1 μg/mL calcitriol, two cell passages) was “stopped growing”. For the same molecule, the “chemoprotection, pre-treatment group vs simultaneous treatment group” value (HEKa cells [1]; 0.1 μg/mL, doxorubicin, cisplatin, erlotinib) was “nearly identical”, the “protection from cyclophosphamide-induced alopecia” value (Sprague Dawley rats) was “did not develop alopecia” and the “protective effect against 5-FU” value (HEKa cells [2]; 0.1 μg/mL calcitriol) was “mild protective effect”. For the same molecule, the “protective effect against doxorubicin” value (HEKa cells [2]; 0.1 μg/mL calcitriol) was “did not appear to provide a significant protective effect”, the “protective effect against gemcitabine” value (HEKa cells [2]; 0.1 μg/mL calcitriol) was “mild protective effect” and the “protective effect against irinotecan” value (HEKa cells [2]; 0.1 μg/mL calcitriol) was “positive protective effect”. For the same molecule, the “protective effect against paclitaxel” value (HEKa cells [2]; 0.1 μg/mL calcitriol) was “some protective effects”, the “protective effect against tamoxifen” value (HEKa cells [2]; 0.1 μg/mL calcitriol) was “weak” and the “interaction (synergy) between calcitriol and drugs tested” value (HEKa cells [2]; 0.1 μg/mL calcitriol premixed with 15 drugs, three days) was “no interaction”. The “protection against alkylating agents cisplatin and carboplatin” value (HEKa cells [2]; 0.1 μg/mL calcitriol, low dosage levels) was “moderate level of protection”, the “protective effect against kinase inhibitor drugs” value (HEKa cells [2]; 0.1 μg/mL calcitriol, erlotinib, gefitinib, sorafenib, dasatinib, staurosporin at low drug dosage) was “provided certain growth stimulation and protected the HEKa cells” and the “Stratum Corneum calcitriol recovered” value ([3]; Female Minipigs, 1 μg/mL, mean ± SD) was 0.76 ± 1.3 (3) ng/cm^2. The Dermis calcitriol recovered ([3]; Female Minipigs, 1 μg/mL, zero = below Lower Limit of Detection) was 0 ± 0 (3) ng/mg, the “Stratum Corneum calcitriol recovered” value ([3]; Female Minipigs, 3 μg/mL, mean ± SD) was 1.12 ± 1.49 (3) ng/cm^2 and the Dermis calcitriol recovered ([3]; Female Minipigs, 3 μg/mL, zero = below Lower Limit of Detection) was 0 ± 0 (3) ng/mg. The Epidermis calcitriol recovered [3, 4] was 0.02 ± 0.04 (3) ng/mg, the “Stratum Corneum calcitriol recovered” value [3, 4] was 1.65 ± 1.80 (3) ng/cm^2 and the Dermis calcitriol recovered ([3]; Female Minipigs, 10 μg/mL, zero = below Lower Limit of Detection) was 0.0 ± 0.0 (3) ng/mg. For the same molecule, the Epidermis calcitriol recovered [3, 5] was 0.34 ± 0.24 (3) ng/mg, the “Stratum Corneum calcitriol recovered” value [3, 5] was 20.2 ± 11.7 (3) ng/cm^2 and the Dermis calcitriol recovered ([3]; Female Minipigs, 30 μg/mL, zero = below Lower Limit of Detection) was 0.0 ± 0.0 (3) ng/mg. The Dermis calcitriol recovered [3, 6] was 0.13 ± 0.04 (1) ng/mg, the Epidermis calcitriol recovered [3, 6] was 2.09 ± 1.0 (1) ng/mg and the “Stratum Corneum calcitriol recovered” value [3, 6] was 118.1 ± 11.4 (1) ng/cm^2. For the same molecule, the Epidermis calcitriol recovered ([3]; Male Minipigs, 1 μg/mL, mean ± SD) was 0.16 ± 0.28 (3) ng/mg, the “Stratum Corneum calcitriol recovered” value ([3]; Male Minipigs, 1 μg/mL, twice daily 7 days, mean ± SD) was 56.1 ± 17.4 (3) ng/cm^2 and the Dermis calcitriol recovered ([3]; Male Minipigs, 1 μg/mL, zero = below Lower Limit of Detection) was 0.0 ± 0.0 (3) ng/mg. The Epidermis calcitriol recovered [3, 7] was 0.14 ± 0.23 (3) ng/mg, the “Stratum Corneum calcitriol recovered” value [3, 7] was 62.4 ± 7.91 (3) ng/cm^2 and the Dermis calcitriol recovered ([3]; Male Minipigs, 3 μg/mL, zero = below Lower Limit of Detection) was 0.0 ± 0.0 (3) ng/mg. The Epidermis calcitriol recovered [3, 8] was 0.23 ± 0.20 (3) ng/mg, the “Stratum Corneum calcitriol recovered” value [3, 8] was 59.6 ± 14.1 (3) ng/cm^2 and the Dermis calcitriol recovered ([3]; Male Minipigs, 10 μg/mL, zero = below Lower Limit of Detection) was 0.0 ± 0.0 (3) ng/mg. For the same molecule, the Epidermis calcitriol recovered [3, 9] was 0.38 ± 0.33 (3) ng/mg, the “Stratum Corneum calcitriol recovered” value [3, 9] was 54.6 ± 32.5 (3) ng/cm^2 and the Dermis calcitriol recovered ([3]; Male Minipigs, 30 μg/mL, zero = below Lower Limit of Detection) was 0.0 ± 0.0 (3) ng/mg. The “effect of calcitriol on cell growth” value (SkBr-3) was “no significant growth promoting or growth inhibiting effects” and the “effect of calcitriol on cytotoxic effect of Doxorubicin” value (SkBr-3) was “did not appear to appreciably alter”.
